The record followed here is ChEMBL document CHEMBL4725339, “Discovery of USP7 small-molecule allosteric inhibitors” (Bioorg Med Chem Lett, 2020).

As a reminder, the IC50 is the concentration needed to halve the response being measured. For orientation: Kd means the constant that tells how readily two partners part at equilibrium. A lower Kd goes with tighter binding. What is called solubility is how much of the substance goes into solution per volume.

In data set [1] the target is T1, Ubiquitin carboxyl-terminal hydrolase 47 (Homo sapiens, UniProt Q96K76).
T1 sequence (Q96K76 whole entry): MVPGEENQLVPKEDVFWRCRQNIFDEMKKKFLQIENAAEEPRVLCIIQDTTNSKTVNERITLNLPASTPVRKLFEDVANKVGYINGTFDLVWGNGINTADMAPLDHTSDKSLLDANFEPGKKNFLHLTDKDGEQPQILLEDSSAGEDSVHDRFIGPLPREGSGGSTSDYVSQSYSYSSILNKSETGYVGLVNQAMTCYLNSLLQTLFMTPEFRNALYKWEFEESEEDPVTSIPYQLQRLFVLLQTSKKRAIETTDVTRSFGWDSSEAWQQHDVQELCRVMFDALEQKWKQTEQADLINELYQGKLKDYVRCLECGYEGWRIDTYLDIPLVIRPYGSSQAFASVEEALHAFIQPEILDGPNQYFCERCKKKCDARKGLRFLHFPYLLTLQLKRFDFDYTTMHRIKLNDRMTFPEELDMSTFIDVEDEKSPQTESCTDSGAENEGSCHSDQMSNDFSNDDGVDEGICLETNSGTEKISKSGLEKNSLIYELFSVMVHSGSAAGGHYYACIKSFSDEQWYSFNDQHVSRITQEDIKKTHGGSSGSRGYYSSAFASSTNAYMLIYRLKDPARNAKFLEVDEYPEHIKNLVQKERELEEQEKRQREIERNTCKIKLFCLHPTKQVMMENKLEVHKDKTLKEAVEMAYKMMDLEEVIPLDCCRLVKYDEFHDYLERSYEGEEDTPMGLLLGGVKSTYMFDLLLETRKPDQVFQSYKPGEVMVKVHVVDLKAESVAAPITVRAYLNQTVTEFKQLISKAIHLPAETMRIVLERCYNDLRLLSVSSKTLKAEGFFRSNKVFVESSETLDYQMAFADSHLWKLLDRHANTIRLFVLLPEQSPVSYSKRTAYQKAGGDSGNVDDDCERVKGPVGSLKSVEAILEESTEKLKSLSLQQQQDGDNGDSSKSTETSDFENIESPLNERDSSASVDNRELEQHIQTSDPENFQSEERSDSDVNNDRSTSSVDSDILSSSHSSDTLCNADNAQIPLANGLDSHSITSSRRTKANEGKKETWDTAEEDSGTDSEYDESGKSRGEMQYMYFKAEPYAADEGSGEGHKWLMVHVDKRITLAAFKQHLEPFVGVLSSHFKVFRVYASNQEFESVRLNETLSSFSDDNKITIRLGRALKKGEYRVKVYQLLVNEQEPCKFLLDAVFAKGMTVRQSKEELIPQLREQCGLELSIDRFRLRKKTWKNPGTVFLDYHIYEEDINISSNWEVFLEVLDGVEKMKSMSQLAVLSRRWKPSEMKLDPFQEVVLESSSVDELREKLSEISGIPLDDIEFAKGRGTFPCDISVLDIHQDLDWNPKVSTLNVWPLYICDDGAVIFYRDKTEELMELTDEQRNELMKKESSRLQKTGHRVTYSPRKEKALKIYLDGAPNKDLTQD
The data set is described as follows: Inhibition of USP47 (unknown origin).

Data set [2] has as its target T2, Ubiquitin carboxyl-terminal hydrolase 7 (Homo sapiens, UniProt Q93009). The data set is described as follows: Inhibition of recombinant full length USP7 (unknown origin) using di-ubiquitin as substrate by fluorescence based assay.
Target sequence in this assay (Q93009 whole entry): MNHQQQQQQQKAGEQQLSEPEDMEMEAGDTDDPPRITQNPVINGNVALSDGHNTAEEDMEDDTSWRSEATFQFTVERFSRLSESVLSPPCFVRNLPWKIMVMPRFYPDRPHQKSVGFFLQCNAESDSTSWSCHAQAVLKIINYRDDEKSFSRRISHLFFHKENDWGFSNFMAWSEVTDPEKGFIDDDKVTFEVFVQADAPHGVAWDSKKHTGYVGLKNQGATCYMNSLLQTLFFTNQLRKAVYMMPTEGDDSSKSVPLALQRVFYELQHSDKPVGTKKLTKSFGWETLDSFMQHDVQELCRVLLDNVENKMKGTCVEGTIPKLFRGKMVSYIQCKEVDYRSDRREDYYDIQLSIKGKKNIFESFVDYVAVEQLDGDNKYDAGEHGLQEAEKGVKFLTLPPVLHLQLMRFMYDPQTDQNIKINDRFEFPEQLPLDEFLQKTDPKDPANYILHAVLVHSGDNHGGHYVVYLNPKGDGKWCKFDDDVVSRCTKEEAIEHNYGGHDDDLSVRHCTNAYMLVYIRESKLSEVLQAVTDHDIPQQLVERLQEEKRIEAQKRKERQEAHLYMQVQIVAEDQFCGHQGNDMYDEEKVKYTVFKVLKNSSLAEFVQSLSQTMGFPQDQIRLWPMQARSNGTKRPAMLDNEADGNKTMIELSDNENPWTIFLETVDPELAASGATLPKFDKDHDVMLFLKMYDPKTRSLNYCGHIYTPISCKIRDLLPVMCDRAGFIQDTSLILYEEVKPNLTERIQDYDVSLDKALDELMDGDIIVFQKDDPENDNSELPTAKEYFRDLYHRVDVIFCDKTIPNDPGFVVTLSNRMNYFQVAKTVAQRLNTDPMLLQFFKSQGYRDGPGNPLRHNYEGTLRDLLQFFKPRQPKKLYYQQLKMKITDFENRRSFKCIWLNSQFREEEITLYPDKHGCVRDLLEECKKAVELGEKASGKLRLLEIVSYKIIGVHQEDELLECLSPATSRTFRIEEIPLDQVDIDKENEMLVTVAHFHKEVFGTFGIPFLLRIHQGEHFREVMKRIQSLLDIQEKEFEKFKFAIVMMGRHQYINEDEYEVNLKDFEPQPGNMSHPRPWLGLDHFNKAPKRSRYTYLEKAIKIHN
For data set [3], the species on record is Homo sapiens. The data set is described as follows: Selectivity index, ratio of IC50 for USP14 (unknown origin) to IC50 for recombinant full length USP7 (unknown origin) using di-ubiquitin as substrate by fluorescence based assay.
Data set [4] addresses Ubiquitin carboxyl-terminal hydrolase 14 (Homo sapiens, UniProt P54578). The data set is described as follows: Inhibition of USP14 (unknown origin).
For data set [5], the species on record is Homo sapiens. The data set is described as follows: Selectivity index, ratio of IC50 for USP47 (unknown origin) to IC50 for recombinant full length USP7 (unknown origin) using di-ubiquitin as substrate by fluorescence based assay.
In data set [6] the target is T3, Ubiquitin carboxyl-terminal hydrolase 1 (Homo sapiens, UniProt O94782).
T3 sequence (O94782 whole entry): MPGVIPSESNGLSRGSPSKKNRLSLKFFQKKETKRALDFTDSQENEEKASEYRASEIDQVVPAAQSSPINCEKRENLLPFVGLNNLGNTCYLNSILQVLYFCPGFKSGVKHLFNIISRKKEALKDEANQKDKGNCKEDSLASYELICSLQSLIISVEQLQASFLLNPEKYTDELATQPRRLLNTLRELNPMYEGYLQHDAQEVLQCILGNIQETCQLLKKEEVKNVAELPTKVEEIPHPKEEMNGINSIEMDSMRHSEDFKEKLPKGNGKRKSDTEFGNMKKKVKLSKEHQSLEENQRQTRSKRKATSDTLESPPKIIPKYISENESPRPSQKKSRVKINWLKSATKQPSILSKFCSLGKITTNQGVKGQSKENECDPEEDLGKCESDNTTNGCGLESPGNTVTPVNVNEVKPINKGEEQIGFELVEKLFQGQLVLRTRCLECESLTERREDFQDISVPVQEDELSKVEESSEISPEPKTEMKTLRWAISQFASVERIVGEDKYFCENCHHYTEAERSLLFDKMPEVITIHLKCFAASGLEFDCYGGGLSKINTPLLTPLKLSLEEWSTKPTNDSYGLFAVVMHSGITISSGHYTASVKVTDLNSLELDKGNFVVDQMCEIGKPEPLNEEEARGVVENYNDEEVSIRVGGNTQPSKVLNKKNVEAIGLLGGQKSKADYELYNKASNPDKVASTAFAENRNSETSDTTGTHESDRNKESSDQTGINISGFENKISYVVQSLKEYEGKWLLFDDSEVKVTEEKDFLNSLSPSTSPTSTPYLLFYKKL
The data set is described as follows: Inhibition of USP1 (unknown origin).

For data set [7], the species on record is Homo sapiens. The data set is described as follows: Selectivity index, ratio of IC50 for USP1 (unknown origin) to IC50 for recombinant full length USP7 (unknown origin) using di-ubiquitin as substrate by fluorescence based assay.
Data set [8] deals with T2, Ubiquitin carboxyl-terminal hydrolase 7. The data set is described as follows: Inhibition of recombinant human C-terminal His-tagged N-terminal GST-tagged full length USP7 using di-ubiquitin as substrate preincubated for 10 mins followed by substrate addition and measured after 60 mins by TR-FRET assay.
Target sequence in this assay (Q93009 whole entry): as the sequence (Q93009 whole entry) above
The target is the same in data set [9]. The data set is described as follows: Inhibition of recombinant human His-tagged USP7 (208 to 560 residues) expressed in Hi-five Sf9 cells using monoubiquitinated ubiquitin-rhodamine as substrate incubated for 1 hr by fluorescence based assay.
Target sequence in this assay (Q93009 whole entry): as the sequence (Q93009 whole entry) above
Data set [10] shares this target. The data set is described as follows: Allosteric binding affinity to USP7 catalytic domain (unknown origin) at His403, Gln351, Leu304, Ser353, Met328, Trp285 and Gly284 residues at 1.12 mM by NMR-15N-1H TROSY spectral titration analysis.
Target sequence in this assay (Q93009 whole entry, looked up): as the sequence (Q93009 whole entry) above
Data set [11] shares this target. The data set is described as follows: Binding affinity to USP7 (unknown origin) by T2 relaxation experiment based analysis.
Target sequence in this assay (Q93009 whole entry): as the sequence (Q93009 whole entry) above
Data set [12] shares this target. The data set is described as follows: Allosteric binding affinity to USP7 catalytic domain (unknown origin) at Met328, Trp285, Gly284, Gln405 and Gly313 residues by NMR-15N-1H TROSY spectral titration analysis.
Target sequence in this assay (Q93009 whole entry): as the sequence (Q93009 whole entry) above
Data set [13] shares this target. The data set is described as follows: Binding affinity to USP7 (unknown origin) by 1H-NMR-STD analysis.
Target sequence in this assay (Q93009 whole entry, looked up): as the sequence (Q93009 whole entry) above
For data set [14] the target is unchanged. The data set is described as follows: Binding affinity to USP7 (unknown origin) by 1H-1H-NOESY experiment based analysis.
Target sequence in this assay (Q93009 whole entry, looked up): as the sequence (Q93009 whole entry) above
For data set [15] the target is unchanged. The data set is described as follows: Allosteric binding affinity to USP7 catalytic domain (unknown origin) at Met328 residues by NMR-15N-1H TROSY spectral titration analysis.
Target sequence in this assay (Q93009 whole entry): as the sequence (Q93009 whole entry) above
Data set [16] is described as follows: Aqueous solubility of compound. The class given is physicochemical. The note with it: water (aqueous).

Calls of active or inactive are those of the source. No cut-off for these calls is given here. A value given as a limit tells only on which side of the number the result lay.

Ubiquitin carboxyl-terminal hydrolase 14, sequence (P54578 whole entry): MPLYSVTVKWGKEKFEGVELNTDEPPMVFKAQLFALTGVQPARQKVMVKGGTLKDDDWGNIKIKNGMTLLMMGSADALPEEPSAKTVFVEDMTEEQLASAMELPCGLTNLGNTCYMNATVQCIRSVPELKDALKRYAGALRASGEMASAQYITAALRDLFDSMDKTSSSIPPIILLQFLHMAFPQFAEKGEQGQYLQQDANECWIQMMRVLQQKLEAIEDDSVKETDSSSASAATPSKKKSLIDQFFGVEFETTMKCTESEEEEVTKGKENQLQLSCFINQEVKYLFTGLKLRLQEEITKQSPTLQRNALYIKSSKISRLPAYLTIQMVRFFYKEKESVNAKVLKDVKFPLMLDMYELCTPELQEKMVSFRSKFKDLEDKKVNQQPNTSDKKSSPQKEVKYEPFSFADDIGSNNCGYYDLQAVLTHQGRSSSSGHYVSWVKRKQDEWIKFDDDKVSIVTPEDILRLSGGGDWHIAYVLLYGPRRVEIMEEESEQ

On to `Nc1nc2cc(C(F)(F)F)ccn2c1-c1ccc(O)cc1`, for which the IC50 in data set [1] is more than 100 µM; in data set [2] it was 42 µM; in [4], more than 100 µM; in data set [6] it was more than 100 µM. The Ratio IC50 in the data set listed under Homo sapiens [3], in the data set filed under Homo sapiens [5] and in the data set listed under Homo sapiens [7] was more than 2 in each case.

For the compound `Cc1ccc2nc(N)c(-c3ccc(O)cc3)n2c1`, the IC50 in data set [1] was more than 100 µM; in data set [2] it was 39 µM; in data set [4] it was more than 100 µM; in [6], more than 100 µM. Moreover, the Ratio IC50 in the data set filed under Homo sapiens [3], in the data set listed under Homo sapiens [5] and in the data set listed under Homo sapiens [7] was more than 2 each time.

Consider `Nc1nc2cc(C3CCNCC3)ccn2c1-c1ccc(O)cc1`, for which the 50% inhibitory concentration (IC50) in data set [1] was more than 100 µM; in data set [2], 5.3 µM; in data set [4] it was more than 100 µM; in [6], more than 100 µM. In addition, the Ratio IC50 in the data set filed under Homo sapiens [3], in the data set listed under Homo sapiens [5] and in the data set filed under Homo sapiens [7] was more than 2 in each case.

As for `CNc1nc2ccccn2c1-c1ccc(O)cc1`, the IC50 in [1] was more than 100 µM; in [2] it was 16 µM; in data set [4], more than 100 µM; in [6], more than 100 µM. For the same compound, the Ratio IC50 in the data set listed under Homo sapiens [3], in the data set filed under Homo sapiens [5] and in the data set listed under Homo sapiens [7] was more than 2 throughout.

In the case of `CC(C)Nc1nc2ccccn2c1-c1ccc(O)cc1`, the half-inhibitory concentration (IC50) is more than 100 µM in data set [1], 7.9 µM in data set [2], more than 100 µM in data set [4] and more than 100 µM in data set [6]. Besides, the Ratio IC50 in the data set filed under Homo sapiens [3], in the data set listed under Homo sapiens [5] and in the data set filed under Homo sapiens [7] was more than 2 each time.

On to `CCc1c(-c2ccc(C(=O)NC)nc2)cnc(N)c1-c1ccc(O)cc1`, for which the IC50 in data set [8] came to 1.3 µM.

As to `Nc1nc2c(C(F)(F)F)cccn2c1-c1ccc(O)cc1`, the 50% inhibitory concentration (IC50) in data set [1] was more than 100 µM; in data set [2] it was 26 µM; in data set [4], more than 100 µM; in [6], more than 100 µM. Besides, the Ratio IC50 in the data set filed under Homo sapiens [3], in the data set filed under Homo sapiens [5] and in the data set filed under Homo sapiens [7] was more than 2 in each case.

With `CN(C)c1nc2ccccn2c1-c1ccc(O)cc1`, the concentration for half-maximal inhibition (IC50) is more than 100 µM in [1], 24 µM in data set [2], more than 100 µM in data set [4] and more than 100 µM in data set [6]. Further, the Ratio IC50 in the data set listed under Homo sapiens [3], in the data set listed under Homo sapiens [5] and in the data set listed under Homo sapiens [7] was more than 2 each time.

Take `Cc1ccn2c(-c3ccc(O)cc3)c(N)nc2c1`: the IC50 in data set [1] was more than 100 µM; in data set [2], 27 µM; in data set [4], more than 100 µM; in data set [6], more than 100 µM. The Ratio IC50 in the data set listed under Homo sapiens [3], in the data set filed under Homo sapiens [5] and in the data set filed under Homo sapiens [7] was more than 2 each time.

On to `O=C(C[C@@H](C(F)F)n1ccc(F)n1)N1CCC(O)(Cn2cnc3c(cnn3-c3ccc(F)cc3)c2=O)CC1`, for which, in [9], the IC50 amounted to 0.052 µM.

On to `Cc1cccn2c(-c3ccc(O)cc3)c(N)nc12`, for which the IC50 was more than 100 µM in data set [1], 8.8 µM in data set [2], more than 100 µM in [4] and more than 100 µM in data set [6]. The Ratio IC50 in the data set filed under Homo sapiens [3], in the data set filed under Homo sapiens [5] and in the data set listed under Homo sapiens [7] was more than 2 in each case.

Regarding `COc1ccc(-c2c(N)nc3ccccn23)cc1`, the IC50 in [1] was more than 100 µM; in data set [2], 38 µM; in data set [4], more than 100 µM; in data set [6] it was more than 100 µM. Also, the Ratio IC50 in the data set filed under Homo sapiens [3], in the data set filed under Homo sapiens [5] and in the data set listed under Homo sapiens [7] was more than 2 in each case.

As for `CC(=O)Nc1nc2ccccn2c1-c1ccc(O)cc1`, the half-inhibitory concentration (IC50) was more than 100 µM in [1], 34 µM in data set [2], more than 100 µM in data set [4] and more than 100 µM in [6]. The outcome in [10], in data set [13] and in data set [14] was Active. The results for the Kd in [11], in [12] and in [15] were 540 µM, 680 µM and 580 µM, respectively. This compound also yielded a solubility in [16] of more than 800 µM.

In the case of `Nc1nc2ccccn2c1-c1ccc(O)cc1`, the IC50 in [1] is more than 100 µM; in [2], 24 µM; in data set [4] it was more than 100 µM; in data set [6], more than 100 µM. The Ratio IC50 in the data set listed under Homo sapiens [3], in the data set filed under Homo sapiens [5] and in the data set filed under Homo sapiens [7] was more than 2 throughout.

As for `Nc1nc2ccc(C(F)(F)F)cn2c1-c1ccc(O)cc1`, the concentration for half-maximal inhibition (IC50) was more than 100 µM in [1], 48 µM in data set [2], more than 100 µM in data set [4] and more than 100 µM in data set [6]. Besides, the Ratio IC50 in the data set listed under Homo sapiens [3], in the data set filed under Homo sapiens [5] and in the data set listed under Homo sapiens [7] was more than 2 throughout.
